IC50 data for four compounds are collected here from BindingDB's records for doi:10.1021/ja0466154 (Weizmann Institute of Science, 2004).

For orientation: IC50 means the point on the concentration scale where inhibition reaches its midpoint. A higher IC50 goes with weaker potency in that assay.

The target of test [1] is Acetylcholinesterase (Tetronarce californica, UniProt P04058). Put plainly: Enzyme Inhibition Assay. Conditions: pH 8; 22 °C. On the procedure: (§1) The cholinesterase assays were performed using colorimetric method reported by Ellman. […] Each inhibitor was evaluated at several concentrations in the range from 1 nM to 20 uM.
Chain of Acetylcholinesterase (Tetronarce californica, UniProt P04058) (P04058 whole entry): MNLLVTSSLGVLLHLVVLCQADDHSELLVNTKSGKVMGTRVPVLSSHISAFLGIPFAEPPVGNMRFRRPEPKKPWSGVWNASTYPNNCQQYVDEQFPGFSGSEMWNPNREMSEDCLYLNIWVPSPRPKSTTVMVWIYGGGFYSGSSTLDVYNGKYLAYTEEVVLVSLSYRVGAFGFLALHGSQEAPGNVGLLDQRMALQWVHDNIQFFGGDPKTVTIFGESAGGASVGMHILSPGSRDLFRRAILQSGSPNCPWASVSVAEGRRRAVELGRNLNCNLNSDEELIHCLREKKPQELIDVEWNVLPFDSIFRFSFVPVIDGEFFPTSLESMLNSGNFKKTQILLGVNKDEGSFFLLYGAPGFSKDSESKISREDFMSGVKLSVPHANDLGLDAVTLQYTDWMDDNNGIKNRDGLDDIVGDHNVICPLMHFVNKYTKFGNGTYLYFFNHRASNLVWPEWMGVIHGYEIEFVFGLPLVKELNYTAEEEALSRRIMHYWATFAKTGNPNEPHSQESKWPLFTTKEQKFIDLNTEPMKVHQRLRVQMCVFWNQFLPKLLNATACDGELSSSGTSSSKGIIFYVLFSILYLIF
Test [2] addresses Acetylcholinesterase (Electrophorus electricus, UniProt O42275). The experiment in a line: Enzyme Inhibition Assay. Particulars: pH 8; 22 °C. As for the experimental part: as §1

Chain of Acetylcholinesterase (Electrophorus electricus, UniProt O42275) (O42275 whole entry): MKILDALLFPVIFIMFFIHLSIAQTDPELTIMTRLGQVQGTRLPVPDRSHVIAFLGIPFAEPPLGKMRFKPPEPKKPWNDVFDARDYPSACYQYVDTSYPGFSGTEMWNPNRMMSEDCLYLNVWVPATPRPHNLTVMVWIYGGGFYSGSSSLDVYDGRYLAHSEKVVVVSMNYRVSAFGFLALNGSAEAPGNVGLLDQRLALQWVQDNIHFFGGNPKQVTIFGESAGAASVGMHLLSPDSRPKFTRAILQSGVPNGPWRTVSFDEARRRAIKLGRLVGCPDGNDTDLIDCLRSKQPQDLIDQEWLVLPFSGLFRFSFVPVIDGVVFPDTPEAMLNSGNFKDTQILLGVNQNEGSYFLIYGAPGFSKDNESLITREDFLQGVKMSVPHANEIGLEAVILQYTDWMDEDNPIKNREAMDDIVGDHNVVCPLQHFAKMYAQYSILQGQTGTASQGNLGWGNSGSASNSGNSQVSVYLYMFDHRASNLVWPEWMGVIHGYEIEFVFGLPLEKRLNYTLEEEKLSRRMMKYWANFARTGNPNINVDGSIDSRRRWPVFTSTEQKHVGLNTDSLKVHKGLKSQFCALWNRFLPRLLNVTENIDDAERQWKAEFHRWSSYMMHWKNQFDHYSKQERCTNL

For `COc1ccc2c3c1O[C@H]1C[C@@H](O)C=C[C@@]31CC[N+](CCCCCCCCN1C(=O)c3ccccc3C1=O)=C2` [(1S,12S,14R)-4-[8-(1,3-dioxo-2,3-dihydro-1H-isoindol-2-yl)octyl]-14-hydroxy-9-methoxy-11-oxa-4-azatetracyclo[8.6.1.0^{1,12}.0^{6,17}]heptadeca-4,6,8,10(17),15-pentaen-4-ium], the IC50 on Acetylcholinesterase [1] amounted to 4 nM.

Take `COc1ccc2c3c1O[C@H]1C[C@@H](O)C=C[C@@]31CC[N+](C)=C2` [galanthamine deriv. 14]: the values for the IC50 against Acetylcholinesterase [2] and at Acetylcholinesterase [1] were 266 nM and 702 nM, respectively.

As to `COc1ccc2c3c1O[C@H]1C[C@@H](O)C=C[C@@]31CCN(CCCCCCCCN1C(=O)c3ccccc3C1=O)C2` [galanthamine deriv. 3d], the values for the IC50 against Acetylcholinesterase [2] and against Acetylcholinesterase [1] were 72 nM and 38 nM, respectively.

Turning to `C[N+]1=Cc2ccc(OCCCCCCCCN3C(=O)c4ccccc4C3=O)c3c2[C@@]2(C=C[C@H](O)C[C@@H]2O3)CC1` [(1S,12S,14R)-9-{[8-(1,3-dioxo-2,3-dihydro-1H-isoindol-2-yl)octyl]oxy}-14-hydroxy-4-methyl-11-oxa-4-azatetracyclo[8.6.1.0^{1,12}.0^{6,17}]heptadeca-4,6,8,10(17),15-pentaen-4-ium], the IC50 at Acetylcholinesterase [2] is 203 nM; on Acetylcholinesterase [1], 499 nM.
